Test results reported in patent publication US8778966B2, “Quinolinone derivatives as PARP and tank inhibitors” (Janssen Pharmaceutica, NV, priority 2007, dated 2014).

Columns and labels:
Human PARP-1 enzyme = biological target: T1, Human PARP-1 enzyme (Homo sapiens, UniProt P09874); assay: In vitro Scintillation Proximity Assay (SPA) for PARP-1 inhibitory activity; format: biochemical; conditions: read-out: in vitro SPA assay PARP-1 pIC50 (converted)
T1 construct: purchased Trevigen
How it was run: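 SPA assay: nicked-DNA-activated PARP-1 (0.1–0.2 μg/ml) ADP-ribosylates biotinylated histones (2 μg/ml) using [3H]-NAD+, 20 min at RT in Tris pH 8/DTT/MgCl2, stopped with 2 mM NAD+. Blank-subtracted cpm expressed as % control; IC50 by linear interpolation, reported as pIC50 (10−5 to 3×10−9 M tested).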

HCT116 cells = assay: Mitotic arrest assay on HCT116 cells (phospho-histone H3 Ser10); format: cell-based, human; conditions: Homo sapiens, HCT-116, HCT116 cells; lowest active dose; read-out: Mitotic arrest HCT116 LAD (converted)
How it was run: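 Read-out is imaging of phospho-histone H3 Ser10 (Alexa Fluor 488) with Hoechst nuclear counting, after 6 h compound exposure at 37 °C, DMSO ≤0.1%. LAD is the lowest dose at which the blank-corrected value over SD exceeds 5; triplicates, low-count wells excluded.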

T1 sequence (P09874 whole entry): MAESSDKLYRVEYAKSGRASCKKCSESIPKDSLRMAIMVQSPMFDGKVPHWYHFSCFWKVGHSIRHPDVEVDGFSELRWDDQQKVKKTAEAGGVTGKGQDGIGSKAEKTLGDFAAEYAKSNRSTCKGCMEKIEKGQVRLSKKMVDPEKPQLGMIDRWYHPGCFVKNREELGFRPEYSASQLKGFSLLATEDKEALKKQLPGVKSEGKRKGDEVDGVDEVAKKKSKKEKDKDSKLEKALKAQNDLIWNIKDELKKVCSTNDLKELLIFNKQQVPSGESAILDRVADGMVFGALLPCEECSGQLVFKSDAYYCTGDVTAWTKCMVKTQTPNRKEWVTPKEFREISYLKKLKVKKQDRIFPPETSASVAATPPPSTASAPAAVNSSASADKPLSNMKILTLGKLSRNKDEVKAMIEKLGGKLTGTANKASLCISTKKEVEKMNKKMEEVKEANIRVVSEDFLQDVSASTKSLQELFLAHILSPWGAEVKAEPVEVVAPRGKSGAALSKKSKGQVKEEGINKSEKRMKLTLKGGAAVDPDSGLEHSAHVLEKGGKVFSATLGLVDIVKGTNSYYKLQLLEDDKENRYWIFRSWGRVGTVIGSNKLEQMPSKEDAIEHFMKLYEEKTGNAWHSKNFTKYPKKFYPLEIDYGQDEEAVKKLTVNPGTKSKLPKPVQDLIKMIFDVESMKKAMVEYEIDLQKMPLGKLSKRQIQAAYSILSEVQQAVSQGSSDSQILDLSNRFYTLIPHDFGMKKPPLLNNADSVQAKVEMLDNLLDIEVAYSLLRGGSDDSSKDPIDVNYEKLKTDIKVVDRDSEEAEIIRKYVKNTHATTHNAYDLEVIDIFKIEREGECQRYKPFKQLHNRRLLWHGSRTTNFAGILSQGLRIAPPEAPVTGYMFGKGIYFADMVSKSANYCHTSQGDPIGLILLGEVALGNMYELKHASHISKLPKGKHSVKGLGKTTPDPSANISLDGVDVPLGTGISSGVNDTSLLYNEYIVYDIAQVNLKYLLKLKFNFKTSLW

| SMILES | IC50 (Human PARP-1 enzyme) [nM] | minimal effective concentration (HCT116 cells) [µM] |
| --- | --- | --- |
| CCc1cc2ccc(C(C)(C#N)Cc3nc(C#N)cc(OC)n3)cc2[nH]c1=O (single isomer, unassigned) [Compound 204] | 39.8 | – |
| CCc1cc2c(OC)cc(C(C)(C#N)Cc3nc(OC)cc(OC)n3)cc2[nH]c1=O (single isomer, unassigned) [Compound 230] | 63.1 | 1 |
| CCc1cc2ccc([C@@](C)(C#N)CCOc3ccc(C#N)cc3)cc2[nH]c1=O (single isomer, unassigned) [Compound 273] | 79.4 | 0.1 |
| CCc1cc2ccc([C@](C)(C#N)CCOc3ccc(C#N)cc3)cc2[nH]c1=O (single isomer, unassigned) [Compound 275] | 50.1 | 10 |
| CCc1cc2ccc([C@](C)(C#N)Cc3cccc(/C=C/S(C)(=O)=O)c3)cc2[nH]c1=O (single isomer, unassigned) [Compound 291] | 25.1 | 0.1 |
| CCc1cc2ccc([C@@](C)(C#N)Cc3cccc(C#CCO)c3)cc2[nH]c1=O (single isomer, unassigned) [Compound 295] | 25.1 | 10 |
| CCc1cc2ccc([C@](C)(C#N)Cc3cccc(C#CCO)c3)cc2[nH]c1=O (single isomer, unassigned) [Compound 296] | 31.6 | 0.1 |
| CCc1cc2ccc([C@@](C)(C#N)Cc3cc(OC)nc(C)n3)cc2[nH]c1=O (single isomer, unassigned) [Compound 361] | 126 | 10 |
| CCc1cc2ccc([C@](C)(C#N)Cc3cc(OC)nc(C)n3)cc2[nH]c1=O (single isomer, unassigned) [Compound 362] | 631 | 0.3 |
| Cc1cc2ccc([C@@](C)(C#N)C3CCc4ccccc43)cc2[nH]c1=O (single isomer, unassigned) [Compound 385] | 100 | 10 |
| Cc1cc2ccc([C@](C)(C#N)C3CCc4ccccc43)cc2[nH]c1=O (single isomer, unassigned) [Compound 386] | 126 | 0.1 |
| CCc1cc2ccc(C(C)(C#N)Cc3cccc(OCCCN4CCNCC4)c3)cc2[nH]c1=O (stereo not drawn) [Compound 25] | 1580 | 1 |
| CCc1cc2ccc(C(C#N)(Cc3ccccc3)c3ccc(C#N)cc3)cc2[nH]c1=O (stereo not drawn) [Compound 26] | 1580 | > 10 |
| CCc1cc2ccc(C(C#N)(Cc3ccccc3)c3ccccc3)cc2[nH]c1=O (stereo not drawn) [Compound 27] | 1000 | 3.16 |
| CCc1cc2ccc(C(C#N)(Cc3ccccc3)C3CC3)cc2[nH]c1=O (stereo not drawn) [Compound 29] | 631 | 1 |
| CCc1cc2ccc(C(C#N)(Cc3ccccc3)C(C)C)cc2[nH]c1=O (stereo not drawn) [Compound 30] | 3160 | 3.16 |
| CCCC(C#N)(Cc1ccccc1)c1ccc2cc(CC)c(=O)[nH]c2c1 (stereo not drawn) [Compound 31] | 2000 | 1 |
| CCc1cc2ccc(C(C)(C#N)Cc3cc(OC)ccc3F)cc2[nH]c1=O (stereo not drawn) [Compound 171] | 20 | – |
| CCc1cc2ccc(C(C)(C#N)Cc3cccc(-c4ccc[nH]4)c3)cc2[nH]c1=O (stereo not drawn) [Compound 176] | 50.1 | 1 |
| CCc1cc2ccc(C(C)(C#N)Cc3cccc(CCS(C)(=O)=O)c3)cc2[nH]c1=O (stereo not drawn) [Compound 178] | 63.1 | 3 |

| SMILES | IC50 (Human PARP-1 enzyme) [nM] | minimal effective concentration (HCT116 cells) [µM] |
| --- | --- | --- |
| Cc1cc2ccc(C(C)(C#N)Cc3cccc(C=Cc4ccccc4)c3)cc2[nH]c1=O (stereo not drawn) [Compound 179] | 200 | 1 |
| CCc1cc2ccc(C(C)(C#N)Cc3cccc(/C=N/OC)c3)cc2[nH]c1=O (stereo not drawn) [Compound 185] | 20 | – |
| CCc1cc2ccc(C(C)(C#N)Cc3cccc(C(=N)NO)c3)cc2[nH]c1=O (stereo not drawn) [Compound 186] | 39.8 | 3 |
| Cc1cc2ccc(C(C)(C#N)Cc3cccc(Oc4ccc(F)cc4)c3)cc2[nH]c1=O (stereo not drawn) [Compound 192] | 398 | 0.3 |
| CCc1cc2ccc(C(C)(C#N)Cc3cccc(OCCCC#N)c3)cc2[nH]c1=O (stereo not drawn) [Compound 194] | 25.1 | – |
| CCc1cc2ccc(C(C)(C#N)Cc3cccc(OCCC#N)c3)cc2[nH]c1=O (stereo not drawn) [Compound 195] | 39.8 | 0.1 |
| C#CCOc1cccc(CC(C)(C#N)c2ccc3cc(CC)c(=O)[nH]c3c2)c1 (stereo not drawn) [Compound 196] | 25.1 | 0.3 |
| CCc1cc2ccc(C(C)(C#N)COCc3ccccc3)cc2[nH]c1=O (stereo not drawn) [Compound 197] | 100 | – |
| CCc1cc2ccc(C(C)(C#N)Cc3cccc(OCCS(C)(=O)=O)c3)cc2[nH]c1=O (stereo not drawn) [Compound 201] | 25.1 | – |
| CCc1cc2ccc(C(C)(C#N)Cc3nc(Cl)cc(OC)n3)cc2[nH]c1=O (stereo not drawn) [Compound 202] | 79.4 | 0.1 |
| CCc1cc2ccc(C(C)(C#N)Cc3nc(N(C)C)cc(N(C)C)n3)cc2[nH]c1=O (stereo not drawn) [Compound 205] | 79.4 | 0.3 |
| CCc1cc2ccc(C(C)(C#N)Cc3cccc(N4CCC(N(C)C)C4)n3)cc2[nH]c1=O (stereo not drawn) [Compound 209] | 50.1 | 1 |
| CCc1cc2ccc(C(C)(C#N)Cc3cccc(C#Cc4cncn4C)n3)cc2[nH]c1=O (stereo not drawn) [Compound 217] | 79.4 | 3 |
| CCc1cc2ccc(C(C)(C#N)Cc3cccc(N(C)CCc4ccccc4)n3)cc2[nH]c1=O.Cl (stereo not drawn) [Compound 220] | 398 | 3 |
| CCc1cc2ccc(C(C)(C#N)Cc3cccc(C#N)[n+]3[O-])cc2[nH]c1=O (stereo not drawn) [Compound 228] | 50.1 | – |
| CCc1cc2c(OC)cc(C(C)(C#N)Cc3nc(OC)cc(OC)n3)cc2[nH]c1=O (stereo not drawn) [Compound 229] | 63.1 | 3 |
| CCc1cc2ccc(C(C)(C#N)CN3CCN(c4ccccn4)CC3)cc2[nH]c1=O (stereo not drawn) [Compound 233] | 50.1 | 1 |
| Cc1nc(-c2ccccc2)sc1CC(C)(C#N)c1ccc2cc(C)c(=O)[nH]c2c1 (stereo not drawn) [Compound 235] | 126 | 0.3 |
| CCc1cc2ccc(C(C)(C#N)Cc3cccc4c3CCN4)cc2[nH]c1=O (stereo not drawn) [Compound 237] | 25.1 | 1 |
| CCc1cc2ccc(C(C)(C#N)Cc3cccc(C(=O)OC(C)C)c3)cc2[nH]c1=O (stereo not drawn) [Compound 255] | 50.1 | 0.1 |

| SMILES | IC50 (Human PARP-1 enzyme) [nM] | minimal effective concentration (HCT116 cells) [µM] |
| --- | --- | --- |
| Cc1cc2ccc(C(C)(C#N)Cc3cccc(I)c3)cc2[nH]c1=O (stereo not drawn) [Compound 256] | 126 | 0.1 |
| CCc1cc2ccc(C(C)(C#N)Cc3cccc(NC)c3)cc2[nH]c1=O (stereo not drawn) [Compound 257] | 79.4 | 0.3 |
| CCc1cc2ccc(C(C)(C#N)Cc3cc(Br)cc(N(C)C)c3)cc2[nH]c1=O (stereo not drawn) [Compound 260] | 79.4 | 0.1 |
| Cc1cc2ccc(C(C)(C#N)Cc3cccc(OCC4CCOCC4)c3)cc2[nH]c1=O (stereo not drawn) [Compound 261] | 100 | 1 |
| CCc1cc2ccc(C(C)(C#N)Cc3cc(F)ccc3F)cc2[nH]c1=O (stereo not drawn) [Compound 280] | 50.1 | 0.3 |
| CCc1cc2ccc(C(C)(C#N)Cc3ccc(F)c(F)c3)cc2[nH]c1=O (stereo not drawn) [Compound 281] | 39.8 | 1 |
| CCc1cc2ccc(C(C)(C#N)Cc3cc(C(F)(F)F)ccc3F)cc2[nH]c1=O (stereo not drawn) [Compound 283] | 79.4 | 0.3 |
| CCOc1cccc(CC(C)(C#N)c2ccc3cc(CC)c(=O)[nH]c3c2)c1 (stereo not drawn) [Compound 285] | 50.1 | 0.3 |
| CCc1cc2ccc(C(C)(C#N)Cc3cccc(OC)c3F)cc2[nH]c1=O (stereo not drawn) [Compound 286] | 25.1 | 1 |
| CCc1cc2ccc(C(C)(C#N)Cc3cc(C(C)C)ccc3OC)cc2[nH]c1=O (stereo not drawn) [Compound 288] | 158 | 1 |
| CCc1cc2ccc(C(C)(C#N)Cc3cc(OC)c(OC)c(OC)c3)cc2[nH]c1=O (stereo not drawn) [Compound 289] | 158 | 0.1 |
| CCc1cc2ccc(C(C)(C#N)Cc3cccc(/C=N/O)c3)cc2[nH]c1=O (stereo not drawn) [Compound 299] | 31.6 | – |
| CCc1cc2ccc(C(C)(C#N)CN(C)Cc3ccc(C#N)cc3)cc2[nH]c1=O (stereo not drawn) [Compound 300] | 158 | 0.3 |
| CCc1cc2ccc(C(C)(C#N)CNCc3ccc(C#N)cc3)cc2[nH]c1=O (stereo not drawn) [Compound 302] | 126 | 1 |
| Cc1cc2ccc(C(C)(C#N)Cc3cccc(Oc4ccccc4)c3)cc2[nH]c1=O (stereo not drawn) [Compound 305] | 200 | 0.3 |
| CCc1cc2ccc(C(C)(C#N)Cc3nc(C#N)cc(OC)n3)cc2[nH]c1=O (stereo not drawn) [Compound 313] | 100 | 0.3 |
| CCc1cc2ccc(C(C)(C#N)Cc3cc(C#N)nc(OC)c3)cc2[nH]c1=O (stereo not drawn) [Compound 314] | 50.1 | – |
| CCc1cc2ccc(C(C)(C#N)Cc3cc(C#N)nc(N(C)C)c3)cc2[nH]c1=O (stereo not drawn) [Compound 325] | 79.4 | – |
| CCc1cc2ccc(C(C)(C#N)Cc3c4ccccc4nn3C)cc2[nH]c1=O (stereo not drawn) [Compound 347] | 158 | – |
| CCc1cc2ccc(C(C)(C#N)Cc3cc(OC)nc(OC)c3)cc2[nH]c1=O (stereo not drawn) [Compound 350] | 39.8 | – |
